Results taken from patent US20140005163A1 (NOVARTIS AG, priority 2010, published 2014).

The compounds below were run on S6 Ribosomal Protein phosphorylation Ser235/236 in TSC1 null mouse embryo fibroblast (MEF) cells (assay: Reverse protein array assay, S6 Ribosomal Protein phosphorylation Ser235/236 in TSC1 null MEF cells). Details: 1 h, pS6 ribosomal protein Ser235/236, 60 minutes incubation, read-out: p-S6 IC50.
Assay type: cell-based
Method in brief: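 TSC1−/− MEFs, seeded and held ≥20 h at 37 °C/5% CO2, were exposed to 8-step serial compound dilutions (0.02% DMSO final; DMSO vehicle control) for 60 min at 37 °C. Cells were then lysed on ice for 10 min and lysates spotted onto reverse protein array chips.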

Row | Compound | IC50
1 | CCOc1ccc(-c2ccc3ncc4c(c3c2)n(-c2ccnn2CC)c(=O)n4C)cn1 [Example 3.4, 8-(6-Ethoxy-pyridin-3-yl)-1-(2-ethyl-2H-pyrazol-3-yl)-3-methyl-1,3-dihydro-imidazo[4,5-c]quinolin-2-one] | 199 nM
2 | Cc1nn(CC(=O)N(C)C)cc1-n1c(=O)n(C)c2cnc3ccc(-c4ccccc4)cc3c21 [Example 37.3, N,N-Dimethyl-2-[3-methyl-4-(3-methyl-2-oxo-8-phenyl-2,3-dihydro-imidazo[4,5-c]quinolin-1-yl)-pyrazol-1-yl]-acetamide] | 15 nM
3 | CCN(C)C(=O)Cn1cc(-n2c(=O)n(C)c3cnc4ccc(-c5cncc(OC(C)C)c5)cc4c32)c(C)n1 [Example 58.5, N-Ethyl-2-{4-[8-(5-isopropoxy-pyridin-3-yl)-3-methyl-2-oxo-2,3-dihydro-imidazo[4,5-c]quinolin-1-yl]-3-methyl-pyrazol-1-yl}-N-methyl-acetamide] | 3 nM
4 | Cc1nn(CC(=O)N(C)C)c(C)c1-n1c(=O)n(C)c2cnc3ccc(-c4cncc(OC5CCC5)c4)cc3c21 [Example 60.2, 2-{4-[8-(5-Cyclobutoxy-pyridin-3-yl)-3-methyl-2-oxo-2,3-dihydro-imidazo[4,5-c]quinolin-1-yl]-3,5-dimethyl-pyrazol-1-yl}-N,N-dimethyl-acetamide] | 11 nM
5 | COc1ncc(-c2ccc3ncc4c(c3c2)n(-c2cn(C)nc2C)c(=O)n4C)cc1NC(C)=O [Example 64, N-{5-[1-(1,3-Dimethyl-1H-pyrazol-4-yl)-3-methyl-2-oxo-2,3-dihydro-1H-imidazo[4,5-c]quinolin-8-yl]-2-methoxy-pyridin-3-yl}-acetamide] | 5 nM
6 | Cc1nn(C)cc1-n1c(=O)n(C)c2cnc3ccc(-c4ccc(-n5cccn5)nc4)cc3c21 [Example 79, 1-(1,3-Dimethyl-1H-pyrazol-4-yl)-3-methyl-8-(6-pyrazol-1-yl-pyridin-3-yl)-1,3-dihydro-imidazo[4,5-c]quinolin-2-one] | 5 nM
7 | CCNc1cc(-c2ccc3ncc4c(c3c2)n(-c2c(C)nn(CC(=O)N(C)C)c2C)c(=O)n4C)cnc1C [Example 87.5, 2-{4-[8-(5-Ethylamino-6-methyl-pyridin-3-yl)-3-methyl-2-oxo-2,3-dihydro-imidazo[4,5-c]quinolin-1-yl]-3,5-dimethyl-pyrazol-1-yl}-N,N-dimethyl-acetamide] | 180 nM
8 | CCNc1cc(-c2ccc3ncc4c(c3c2)n(-c2c(C)nn(CCOC)c2C)c(=O)n4C)cnc1OC [Example 90.2, 8-(5-Ethylamino-6-methoxy-pyridin-3-yl)-1-[1-(2-methoxy-ethyl)-3,5-dimethyl-1H-pyrazol-4-yl]-3-methyl-1,3-dihydro-imidazo[4,5-c]quinolin-2-one] | 35 nM
9 | Cc1nn(C)cc1-n1c(=O)n(C)c2cnc3ccc(-c4cnc5cc[nH]c5c4)cc3c21 [Example 99, 1-(1,3-Dimethyl-1H-pyrazol-4-yl)-3-methyl-8-(1H-pyrrolo[3,2-b]pyridin-6-yl)-1,3-dihydro-imidazo[4,5-c]quinolin-2-one] | 4 nM
10 | COc1ncc(-c2ccc3ncc4c(c3c2)n(-c2cn(C)nc2C)c(=O)n4C)cc1C(N)=O [Example 125.2, 5-[1-(1,3-Dimethyl-1H-pyrazol-4-yl)-3-methyl-2-oxo-2,3-dihydro-1H-imidazo[4,5-c]quinolin-8-yl]-2-methoxy-nicotinamide] | 5 nM
11 | COc1ncc(-c2ccc3ncc4c(c3c2)n(-c2cn(C)nc2C)c(=O)n4C)cc1C#N [Example 132, 5-[1-(1,3-Dimethyl-1H-pyrazol-4-yl)-3-methyl-2-oxo-2,3-dihydro-1H-imidazo[4,5-c]quinolin-8-yl]-2-methoxy-nicotinonitrile] | 3 nM
12 | CCN(C)C(=O)Cn1cc(-n2c(=O)n(C)c3cnc4ccc(-c5ccccc5)cc4c32)c(C)n1 [Example 135, N-Ethyl-N-methyl-2-[3-methyl-4-(3-methyl-2-oxo-8-phenyl-2,3-dihydro-imidazo[4,5-c]quinolin-1-yl)-pyrazol-1-yl]-acetamide] | 6 nM
13 | CCN(C)C(=O)Cn1cc(-n2c(=O)n(C)c3cnc4ccc(-c5cnc(N6CCCC6)nc5)cc4c32)c(C)n1 [Example 140.1, N-Ethyl-N-methyl-2-{3-methyl-4-[3-methyl-2-oxo-8-(2-pyrrolidin-1-yl-pyrimidin-5-yl)-2,3-dihydro-imidazo[4,5-c]quinolin-1-yl]-pyrazol-1-yl}-acetamide] | 5 nM
14 | CNc1ncc(-c2ccc3ncc4c(c3c2)n(-c2c(C)nn(C)c2C)c(=O)n4C)cc1F [Example 141.1, 8-(5-Fluoro-6-methylamino-pyridin-3-yl)-3-methyl-1-(1,3,5-trimethyl-1H-pyrazol-4-yl)-1,3-dihydro-imidazo[4,5-c]quinolin-2-one] | 34 nM
15 | CNc1ncc(-c2ccc3ncc4c(c3c2)n(-c2cn(C)nc2C)c(=O)n4C)cc1F [Example 141.2, 1-(1,3-Dimethyl-1H-pyrazol-4-yl)-8-(5-fluoro-6-methylamino-pyridin-3-yl)-3-methyl-1,3-dihydro-imidazo[4,5-c]quinolin-2-one] | 1 nM
16 | Cc1nn(C)c(C)c1-n1c(=O)n(C)c2cnc3ccc(-c4cnc(N)c(F)c4)cc3c21 [Example 142.1, 8-(6-Amino-5-fluoro-pyridin-3-yl)-3-methyl-1-(1,3,5-trimethyl-1H-pyrazol-4-yl)-1,3-dihydro-imidazo[4,5-c]quinolin-2-one] | 36 nM
17 | CNc1ncc(-c2ccc3ncc4c(c3c2)n(-c2c(C)nn(C)c2C)c(=O)n4C)cc1Cl [Example 146.4, 8-(5-Chloro-6-methylamino-pyridin-3-yl)-3-methyl-1-(1,3,5-trimethyl-1H-pyrazol-4-yl)-1,3-dihydro-imidazo[4,5-c]quinolin-2-one] | 12 nM
18 | CNc1ncc(-c2ccc3ncc4c(c3c2)n(-c2cc(C)nn2C)c(=O)n4C)cc1Cl [Example 146.5, 8-(5-Chloro-6-methylamino-pyridin-3-yl)-1-(2,5-dimethyl-2H-pyrazol-3-yl)-3-methyl-1,3-dihydro-imidazo[4,5-c]quinolin-2-one] | 2.66 nM
19 | Cc1noc(C)c1-n1c(=O)n(C)c2cnc3ccc(-c4cnc(N)c(Cl)c4)cc3c21 [Example 148.4, 8-(6-Amino-5-chloro-pyridin-3-yl)-1-(3,5-dimethyl-isoxazol-4-yl)-3-methyl-1,3-dihydro-imidazo[4,5-c]quinolin-2-one] | 17.7 nM
20 | CNc1cc(-c2ccc3ncc4c(c3c2)n(-c2cn(C)nc2C)c(=O)n4C)cnc1F [Example 150.2, 1-(1,3-Dimethyl-1H-pyrazol-4-yl)-8-(6-fluoro-5-methylamino-pyridin-3-yl)-3-methyl-1,3-dihydro-imidazo[4,5-c]quinolin-2-one] | 1 nM
21 | CCNc1cc(-c2ccc3ncc4c(c3c2)n(-c2c(C)nn(C)c2C)c(=O)n4C)cnc1F [Example 154.1, 8-(5-Ethylamino-6-fluoro-pyridin-3-yl)-3-methyl-1-(1,3,5-trimethyl-1H-pyrazol-4-yl)-1,3-dihydro-imidazo[4,5-c]quinolin-2-one] | 3 nM
22 | Cc1ncc(-c2ccc3ncc4c(c3c2)n(-c2cn(C)nc2C)c(=O)n4C)cc1N(C)C [Example 164, 8-(5-Dimethylamino-6-methyl-pyridin-3-yl)-1-(1,3-dimethyl-1H-pyrazol-4-yl)-3-methyl-1,3-dihydro-imidazo[4,5-c]quinolin-2-one] | 1 nM
23 | CCNc1ncc(-c2ccc3ncc4c(c3c2)n(-c2cn(C)nc2C)c(=O)n4C)cc1COCC [Example 167, 1-(1,3-Dimethyl-1H-pyrazol-4-yl)-8-(5-ethoxymethyl-6-ethylamino-pyridin-3-yl)-3-methyl-1,3-dihydro-imidazo[4,5-c]quinolin-2-one] | 7 nM
24 | CCn1cc(-n2c(=O)n(C)c3cnc4ccc(-c5cnc(N)c(COC)c5)cc4c32)c(C)n1 [Example 168.2, 8-(6-Amino-5-methoxymethyl-pyridin-3-yl)-1-(1-ethyl-3-methyl-1H-pyrazol-4-yl)-3-methyl-1,3-dihydro-imidazo[4,5-c]quinolin-2-one] | < 0.5 nM
25 | Cc1ncc(-c2ccc3ncc4c(c3c2)n(-c2cn(C)nc2C)c(=O)n4C)cc1O [Example 185.1, 1-(1,3-Dimethyl-1H-pyrazol-4-yl)-8-(5-hydroxy-6-methyl-pyridin-3-yl)-3-methyl-1,3-dihydro-imidazo[4,5-c]quinolin-2-one] | 35 nM
26 | Cc1nn(C)cc1-n1c(=O)n(C)c2cnc3ccc(-c4cnc(CO)c(OC(C)C)c4)cc3c21 [Example 190, 1-(1,3-Dimethyl-1H-pyrazol-4-yl)-8-(6-hydroxymethyl-5-isopropoxy-pyridin-3-yl)-3-methyl-1,3-dihydro-imidazo[4,5-c]quinolin-2-one] | 2 nM
27 | COc1cc(-c2ccc3ncc4c(c3c2)n(-c2cn(C)nc2C)c(=O)n4C)cnc1CO [Example 193, 1-(1,3-Dimethyl-1H-pyrazol-4-yl)-8-(6-hydroxymethyl-5-methoxy-pyridin-3-yl)-3-methyl-1,3-dihydro-imidazo[4,5-c]quinolin-2-one] | 5.53 nM
28 | COCc1ncc(-c2ccc3ncc4c(c3c2)n(-c2cn(C)nc2C)c(=O)n4C)cc1OC [Example 195.1, 1-(1,3-Dimethyl-1H-pyrazol-4-yl)-8-(5-methoxy-6-methoxymethyl-pyridin-3-yl)-3-methyl-1,3-dihydro-imidazo[4,5-c]quinolin-2-one] | 5 nM
29 | COCc1ncc(-c2ccc3ncc4c(c3c2)n(-c2cn(C(C)C)nc2C)c(=O)n4C)cc1OC [Example 195.2, 1-(1-Isopropyl-3-methyl-1H-pyrazol-4-yl)-8-(5-methoxy-6-methoxymethyl-pyridin-3-yl)-3-methyl-1,3-dihydro-imidazo[4,5-c]quinolin-2-one] | 31 nM
30 | CCn1cc(-n2c(=O)n(C)c3cnc4ccc(-c5cnc(COC)c(OC)c5)cc4c32)c(C)n1 [Example 195.3, 1-(1-Ethyl-3-methyl-1H-pyrazol-4-yl)-8-(5-methoxy-6-methoxymethyl-pyridin-3-yl)-3-methyl-1,3-dihydro-imidazo[4,5-c]quinolin-2-one] | 31 nM
